According to BindingDB's records for PubMed 2925675 (Nagoya University School of Medicine, 1989):

Legend:
Experiment in all cases: Enzyme Assay
Conditions in all cases: pH 7.4; 30 °C
[1] = target: Calcium/calmodulin-dependent protein kinase II inhibitor 2 (Bos taurus, UniProt A5D7T0)
[2] = target: cAMP-dependent protein kinase type I-alpha regulatory subunit (Bos taurus, UniProt P00514)
[3] = target: Protein kinase C alpha type (Homo sapiens, UniProt P17252)
[4] = target: Casein kinase I isoform alpha (Homo sapiens, UniProt P48729)
Procedure: (§1) Casein kinase activities were determined under the conditions as described by Huang et al (1982).

[5] = target: Casein kinase II subunit alpha (Homo sapiens, UniProt P68400)
Procedure: as §1

Sequence of Casein kinase I isoform alpha (P48729 whole entry, canonical isoform): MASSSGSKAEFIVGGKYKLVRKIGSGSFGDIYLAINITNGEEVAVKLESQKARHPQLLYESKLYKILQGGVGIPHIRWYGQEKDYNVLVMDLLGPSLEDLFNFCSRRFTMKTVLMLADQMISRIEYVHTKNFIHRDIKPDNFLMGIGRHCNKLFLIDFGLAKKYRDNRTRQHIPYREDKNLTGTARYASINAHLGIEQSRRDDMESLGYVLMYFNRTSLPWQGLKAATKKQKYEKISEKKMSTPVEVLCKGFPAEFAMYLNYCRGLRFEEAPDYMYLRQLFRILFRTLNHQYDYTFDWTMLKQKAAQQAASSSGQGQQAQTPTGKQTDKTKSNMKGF
Sequence of Casein kinase II subunit alpha (P68400 whole entry): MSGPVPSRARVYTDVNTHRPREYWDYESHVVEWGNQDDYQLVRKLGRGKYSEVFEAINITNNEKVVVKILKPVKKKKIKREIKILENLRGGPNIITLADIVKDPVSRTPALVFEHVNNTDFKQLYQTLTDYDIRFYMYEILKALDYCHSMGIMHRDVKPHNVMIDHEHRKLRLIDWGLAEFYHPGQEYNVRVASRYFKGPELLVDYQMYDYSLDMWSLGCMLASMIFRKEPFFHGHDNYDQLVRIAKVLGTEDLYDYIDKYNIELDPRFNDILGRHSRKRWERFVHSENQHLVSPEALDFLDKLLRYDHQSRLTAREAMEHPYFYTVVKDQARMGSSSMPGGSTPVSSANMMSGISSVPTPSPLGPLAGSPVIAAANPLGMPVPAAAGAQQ
Sequence of cAMP-dependent protein kinase type I-alpha regulatory subunit (P00514 whole entry): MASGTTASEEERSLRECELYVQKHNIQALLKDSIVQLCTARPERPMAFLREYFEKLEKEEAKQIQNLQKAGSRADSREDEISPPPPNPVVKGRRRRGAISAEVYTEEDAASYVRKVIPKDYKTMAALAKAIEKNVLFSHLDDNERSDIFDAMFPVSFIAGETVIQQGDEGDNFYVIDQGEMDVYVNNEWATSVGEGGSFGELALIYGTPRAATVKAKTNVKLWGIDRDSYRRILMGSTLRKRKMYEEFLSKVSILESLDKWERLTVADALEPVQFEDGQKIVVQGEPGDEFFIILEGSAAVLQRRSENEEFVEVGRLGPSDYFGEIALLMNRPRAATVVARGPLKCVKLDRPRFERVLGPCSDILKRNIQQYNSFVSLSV
Sequence of Calcium/calmodulin-dependent protein kinase II inhibitor 2 (A5D7T0 whole entry): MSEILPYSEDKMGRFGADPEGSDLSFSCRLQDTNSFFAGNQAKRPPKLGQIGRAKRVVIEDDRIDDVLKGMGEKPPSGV

| SMILES | IC50 [1] [µM] | IC50 [2] [µM] | IC50 [3] [µM] | IC50 [4] [µM] | IC50 [5] [µM] |
| --- | --- | --- | --- | --- | --- |
| NCCNS(=O)(=O)c1cccc2cnccc12 [Isoquinoline-5-sulfonic acid (2-amino-ethyl)-amide] | 58 | 3.6 | 18 | 110 | > 300 |
| NCCNS(=O)(=O)c1cccc2ccncc12 [Isoquinolinesulfonamide, CKI-6] | 840 | > 1000 | > 1000 | 50 | > 300 |
| NCCNS(=O)(=O)c1ccc(Cl)c2ccncc12 [Isoquinolinesulfonamide, CKI-7] | 195 | 550 | > 1000 | 9.5 | 90 |
